Reference: paper PMC6554663, “Pharmaceutical Effects of Inhibiting the Soluble Epoxide Hydrolase in Canine Osteoarthritis” (Frontiers in Pharmacology, 2019)
≈ marks a conversion by molar mass, not a printed value. Where “and” joins values, the source holds several entries; their conditions need not be identical. Identical values can stand only once. Like-named read-outs stand apart in the source and are kept apart here.

What was measured:
[1] = Blood and synovial fluid concentrations in treated osteoarthritic dogs; type: in vivo, dog; conditions: for concentration at 2 h: beagle, dog, oral, EC1728 5 mg/kg; for Blood concentration D5 / Synovial fluid concentration D1 / Synovial fluid concentration D5: po, qd x 5, detected EC1728, individual dogs;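 for Synovial fluid concentration D1: synovial fluid also sampled on Day 1 after the pain assessment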
Description: (§1) Eight satellite dogs (2 per each group) had whole blood collected for PK analysis on study Days […]. On Day 1, blood was collected immediately prior to dosing, and again at 0.25, 0.5, 1, 2, 4, 6, and 8 (±5 min) after dosing. On Day 2 through 4, blood was collected 0.5 h (±5 min) after dosing. On Day 5 blood was collected immediately prior to dosing, and again at 0.25, 0.5, 1, 2, 4, 6, 8 (±5 min), 24, 48, and 72 h (±30 min) post treatment. […] For all blood samples, a minimum of 3 mL of whole blood was collected from a suitable vein as per written and approved standard operating procedures. The blood was transferred to K2EDTA (spray dried) blood tube and inverted gently multiple times to ensure proper mixing of the blood and anticoagulant. On study Day 5, synovial fluid was collected by arthrocentesis immediately after the subject completed the questionnaire (approximately […] after dosing). Subjects were anesthetized as per written and approved Standard Operating Procedures. A minimum of 0.1 mL of synovial fluid was collected from each subject. Samples were frozen in an upright position and stored at -80°C ± 4°C before being shipped to UC Davis for analysis.
Pain and function were assessed by a questionnaire answered by blinded technicians based on observation of study animals housed at InterVivo. The survey was adapted from the canine brief pain inventory (CBPI), which was developed based on clinical questionnaires in which owners score the function and pain level of their pets with existing pain conditions ([Brown et al., 2007]). Modifications to the questionnaire attempted to account for differences between owner pain evaluation of pets and pain evaluation of laboratory dogs by technical staff. For survey administration, blinded technicians attempted to elicit objective behavior-specific measures of function and pain level across a variety of normal canine behaviors (e.g., walking, trotting, galloping, rearing, and stair-climbing, etc.). For this, one technician was responsible for soliciting the relevant behaviors from a dog using encouragement and/or food rewards, while the evaluating technician scored function and observable pain using the modified CBPI questionnaire. Subjects were tested daily on Days -7 through -3, to develop baseline scores, and again on Days 1 through 5 administered 1.5 h after dosing. Dosing occurred in the morning, and observations were recorded 1.5 h after dosing, to limit time-of-day variability. Questions are listed in Supplementary Table S3. Animals in treatment groups had blood and synovial fluid collected ∼2 h after the last dose on day 5 (immediately following the study questionnaire) to confirm plasma concentrations in treated animals. Full pharmacokinetic assessments were collected from a satellite group of animals so as not to interfere with pain assessment.

[2] = PK analysis in satellite dogs; type: in vivo, dog; conditions: beagle, dog, whole blood; for AUC(0-t) / Cmax: detected EC1728, blood
Description: as §1
For PK analysis in the satellite group, individual parameters were calculated by fitting blood concentrations to a non-compartmental analysis using Kinetica software (Thermo Fisher Scientific version 5.1). Using the log-linear trapezoidal method, the area under the curve were calculated and were extrapolated to infinity using the last measured plasma concentration (Clast), defined as the timepoint collected 72 h after the last dose or 8 hr after the first dose on day 1, divided by the terminal slope (λz).

[3] = Microsomal stability; type: in vitro ADME, dog; conditions: for % Parent + NADPH / % Parent − NADPH: 60 min, 37°C
Description: Male and female dog liver microsomes (Xenotech) were diluted in potassium phosphate buffer (0.1M, pH 7.4), MgCl2 (3.15 mM), and sodium EDTA (1.05 mM) to a final protein concentration of 1 mg/mL. Compounds were added at 0.1 mM in methanol at 1% and microsomes were activated with 5% (v/v) NADPH regenerating system (100 μL sodium phosphate buffer (0.1M, pH 7.4), 50 μL, glucose-6-phosphate in sodium phosphate buffer (0.1M, pH 7.4), 50 μL NADP+ in sodium phosphate (0.1M, pH 7.4), and 50 μL of 100 Units/mL of […]). […] Compounds were incubated without microsomes or NADPH as negative controls.

[4] = Solubility of sEHI; type: physicochemical; conditions: PEG300, organic solvent or mixture
Description: […] The non-dissolved compounds were filtered through a 0.22 μm centrifuge filter at 40°C and the supernatant was further diluted 10 times with methanol. The samples were analyzed by LC/MS-MS.

[5] = female, po, 1 mg/kg, dosed EC1728 1 mg/kg oral qd, female dog, Day 1
[6] = female, po, 1 mg/kg, dosed EC1728 1 mg/kg oral qd, female dog, Day 5
[7] = female, po, 5 mg/kg, dosed EC1728 5 mg/kg oral qd, female dog, Day 1
[8] = female, po, 5 mg/kg, dosed EC1728 5 mg/kg oral qd, female dog, Day 5
[9] = male, po, 1 mg/kg, dosed EC1728 1 mg/kg oral qd, male dog, Day 1
[10] = male, po, 1 mg/kg, dosed EC1728 1 mg/kg oral qd, male dog, Day 5
[11] = male, po, 5 mg/kg, dosed EC1728 5 mg/kg oral qd, male dog, Day 1
[12] = male, po, 5 mg/kg, dosed EC1728 5 mg/kg oral qd, male dog, Day 5

`O=C(Nc1ccc(OC(F)(F)F)cc1)N[C@H]1CC[C@H](Oc2ccc(C(=O)O)cc2)CC1` [EC1728, trans-4-{4-[3-(4-trifluoromethoxy-phenyl)-ureido]-cyclohexyloxy}-benzoic acid] showed a concentration at 2 h ([1]; blood, 5 mg/kg, day 5, group without dog 2.4, read-out: Blood concentration, average for the remainder of the group) of 395 ng/mL, a concentration at 2 h ([1]; synovial fluid, 5 mg/kg, day 5, read-out: Synovial fluid concentration, averaged for the group) of 988 ng/mL and a concentration at 2 h ([1]; synovial fluid, 5 mg/kg, dog 2.4 (low exposure, removed from analysis), read-out: Synovial fluid concentration, dog 2.4) of 80 to 95 ng/mL. The “Blood concentration D5” value ([1]; dosed EC1728 1 mg/kg, 1 mg/kg) was 31 ng/mL and 72 ng/mL and 76 ng/mL and 64 ng/mL and 82 ng/mL and 40 ng/mL and 36 ng/mL and 171 ng/mL, the “Synovial fluid concentration D1” value ([1]; dosed EC1728 1 mg/kg, 1 mg/kg) was 331 ng/mL and 206 ng/mL and 455 ng/mL and 232 ng/mL and 483 ng/mL and 111 ng/mL and 384 ng/mL and 917 ng/mL and the “Synovial fluid concentration D5” value ([1]; dosed EC1728 1 mg/kg, 1 mg/kg) was 239 ng/mL and 206 ng/mL and 378 ng/mL and 328 ng/mL and 315 ng/mL and 171 ng/mL and 214 ng/mL and 945 ng/mL. The “Blood concentration D5” value ([1]; dosed EC1728 5 mg/kg, 5 mg/kg) was 34 ng/mL and 206 ng/mL and 348 ng/mL and 314 ng/mL and 935 ng/mL and 228 ng/mL and 493 ng/mL and 244 ng/mL, the “Synovial fluid concentration D1” value ([1]; dosed EC1728 5 mg/kg, 5 mg/kg) was 2270 ng/mL and 301 ng/mL and 1180 ng/mL and 2220 ng/mL and 1470 ng/mL and 460 ng/mL and 95 ng/mL and the “Synovial fluid concentration D5” value ([1]; dosed EC1728 5 mg/kg, 5 mg/kg) was 1000 ng/mL and 1150 ng/mL and 833 ng/mL and 1330 ng/mL and 672 ng/mL and 668 ng/mL and 2170 ng/mL and 80 ng/mL. For the same compound, the half-life ([2]; oral, satellite dogs, range over both compounds, Table 3, read-out: half-life) was 24 to 40 h, the AUC(0-t) [2, 5] was 1350 ng·h/mL and the Cmax [2, 5] was 308 ng/mL. The AUC(0-t) [2, 6] was 155000 ng·h/mL, the Cmax [2, 6] was 4660 ng/mL and the half-life ([2]; female, po, 1 mg/kg, read-out: T1/2 (converted)) was 33 h. It also gave an AUC(0-t) [2, 7] of 4940 ng·h/mL, a Cmax [2, 7] of 1160 ng/mL and an AUC(0-t) [2, 8] of 53200 ng·h/mL. It also gave a Cmax [2, 8] of 4990 ng/mL, a half-life ([2]; female, po, 5 mg/kg, read-out: T1/2 (converted)) of 23 h and an AUC(0-t) [2, 9] of 1690 ng·h/mL. For the same compound, the Cmax [2, 9] was 330 ng/mL, the AUC(0-t) [2, 10] was 32000 ng·h/mL and the Cmax [2, 10] was 1900 ng/mL. It also gave a half-life ([2]; male, po, 1 mg/kg, read-out: T1/2 (converted)) of 27 h, an AUC(0-t) [2, 11] of 3760 ng·h/mL and a Cmax [2, 11] of 1100 ng/mL. It also gave an AUC(0-t) [2, 12] of 96300 ng·h/mL, a Cmax [2, 12] of 1930 ng/mL and a half-life ([2]; male, po, 5 mg/kg, read-out: T1/2 (converted)) of 25 h. For the same compound, the “% Parent + NADPH” value ([3]; female dog liver microsomes) was 98 ± 6%, the “% Parent − NADPH” value ([3]; female dog liver microsomes) was 106 ± 9% and the “% Parent + NADPH” value ([3]; male dog liver microsomes) was 103 ± 6%. The “% Parent − NADPH” value ([3]; male dog liver microsomes) was 108 ± 8%, the remaining at 1 h, 1 µM ([3]; pH 7.4, dog liver microsomes, 60-min incubation, sex not specified) was over 95% and the solubility [4] was 97 ± 2 mg/mL (≈ 221 mM).
